We go through 35 compounds from patent US20260285857A1, “BICYCLIC AND HETEROCYCLIC AMIDE COMPOUNDS” (priority 2024, published 2026).

This experiment has as its system immunoglobulin light chain protein WIL-FL T46L. Put plainly: Differential scanning fluorimetry (thermal shift) assay. Type of experiment: binding. The following applies: Table B; temperature shift [Tm]compound-[Tm]vehicle; recombinant WIL-FL T46L.
In the case of `COc1ncc(N2CC[C@@]3(CCN(C(=O)c4nc5c(C)cc(N6CC[C@](C)(c7ccccc7)C6)cn5n4)C3)C2)cc1C(=O)O` [Compound 718], the DSF entry is “***** (>2.5° C.=*****)”.
`COc1cc(C(=O)O)cc(N2CC[C@@]3(CCN(C(=O)c4nc5c(C)cc(N6CC[C@](C)(c7ccccc7)C6)cn5n4)C3)C2)n1` [Compound 719]: the DSF entry is reported as “***** (>2.5° C.=*****)”.
Take `Cc1cc(N2CC[C@](C)(c3ccccc3)C2)cn2nc(C(=O)N3CC[C@@]4(CCN(C5CCCC(C(=O)O)C5)C4)C3)nc12` (some centres unmarked) [Compound 720]: the DSF result was “***** (>2.5° C.=*****)”.
For `Cc1cc(N2CC[C@](C)(c3ccccc3)C2)cn2nc(C(=O)N3CC[C@@]4(CCN(C(=O)CC(C)(C)O)C4)C3)nc12` [Compound 721] the value was “***** (>2.5° C.=*****)”; for `Cc1cc(N2CC[C@](C)(c3ccccc3)C2)cn2nc(C(=O)N3CCC4(CCC(N5CC(C(=O)O)C5)C4)C3)nc12` (some centres unmarked) [Compound 722], “***** (>2.5° C.=*****)”.
In the case of `Cc1cc(N2CC[C@](C)(c3ccccc3)C2)cn2nc(C(=O)N3CCC4(CCN(c5nc(C(=O)O)ccc5C#N)C4)C3)nc12` (some centres unmarked) [Compound 724], the DSF entry is listed as “***** (>2.5° C.=*****)”.
The entry for `Cc1cc(N2CC[C@](C)(c3ccccc3)C2)cn2nc(C(=O)N3CC[C@@]4(CCN(C5CC(C)(C(=O)O)C5)C4)C3)nc12` (some centres unmarked) [Compound 725] is “***** (>2.5° C.=*****)”.
As for `Cc1cc(N2CC[C@](C)(c3ccccc3)C2)cn2nc(C(=O)N3CC[C@@]4(CCN(C(=O)C56COC(C(=O)O)(C5)C6)C4)C3)nc12` [Compound 726], the DSF entry was “***** (>2.5° C.=*****)”.
As to `Cc1cc(C(=O)O)cc(N2CC[C@@]3(CCN(C(=O)c4nc5c(C)cc(N6CC[C@](C)(c7ccccc7)C6)cn5n4)C3)C2)n1` [Compound 729, 2-methyl-6-((R)-7-(8-methyl-6-((R)-3-methyl-3-phenylpyrrolidin-1-yl)-[1,2,4]triazolo[1,5-a]pyridine-2-carbonyl)-2,7-diazaspiro[4.4]nonan-2-yl)isonicotinic acid], the DSF result is “***** (>2.5° C.=*****)”.
Take `Cc1cc(N2CC[C@](C)(c3ccccc3)C2)cn2nc(C(=O)N3CCC4(CCN(c5cnnc(C(=O)O)c5)C4)C3)nc12` (stereo partly drawn) [Compound 730, 5-(7-(8-methyl-6-((R)-3-methyl-3-phenylpyrrolidin-1-yl)-[1,2,4]triazolo[1,5-a]pyridine-2-carbonyl)-2,7-diazaspiro[4.4]nonan-2-yl)pyridazine-3-carboxylic acid]: the DSF result was “***** (>2.5° C.=*****)”.
For `Cc1cc(N2CC[C@](C)(c3ccccc3)C2)cn2nc(C(=O)N3CC[C@@]4(CCN(C(=O)CC(C)(O)C(=O)O)C4)C3)nc12` (stereo partly drawn) [Compound 731, 2-hydroxy-2-methyl-4-[(5R)-2-[8-methyl-6-[(3R)-3-methyl-3-phenyl-pyrrolidin-1-yl]-[1,2,4]triazolo[1,5-a]pyridine-2-carbonyl]-2,7-diazaspiro[4.4]nonan-7-yl]-4-oxo-butanoic acid], the DSF entry is “***** (>2.5° C.=*****)”.
With `Cc1cc(N2CC[C@](C)(c3ccccc3)C2)cn2nc(C(=O)N3CC[C@@]4(CCN(C(=O)C56CCC(C(=O)O)(CC5)OC6)C4)C3)nc12` [Compound 732], the DSF result is reported as “***** (>2.5° C.=*****)”.
For `Cc1cc(N2CC[C@](C)(c3ccccc3)C2)cn2nc(C(=O)N3CC[C@@]4(CCN(C(=O)C56CCCC(C(=O)O)(C5)C6)C4)C3)nc12` [Compound 733, 5-((R)-7-(8-methyl-6-((R)-3-methyl-3-phenylpyrrolidin-1-yl)-[1,2,4]triazolo[1,5-a]pyridine-2-carbonyl)-2,7-diazaspiro[4.4]nonane-2-carbonyl)bicyclo[3.1.1]heptane-1-carboxylic acid] the value was “***** (>2.5° C.=*****)”; for `Cc1cc(N2CC[C@](C)(c3ccccc3)C2)cn2nc(C(=O)N3CC[C@@]4(CCN(C(=O)C5CC56CC(C(=O)O)C6)C4)C3)nc12` (some centres unmarked) [Compound 734], “***** (>2.5° C.=*****)”.
`Cc1cc(N2CCC(C)(n3ccc(C(F)F)n3)C2)cn2nc(C(=O)N3CC[C@@]4(CCN(c5cccc(C(=O)O)n5)C4)C3)nc12` (stereo partly drawn) [Compound 735, 6-[(5R)-2-[6-[3-[3-(difluoromethyl)pyrazol-1-yl]-3-methyl-pyrrolidin-1-yl]-8-methyl-[1,2,4]triazolo[1,5-a]pyridine-2-carbonyl]-2,7-diazaspiro[4.4]nonan-7-yl]pyridine-2-carboxylic acid]: the DSF result is on record as “**** (>1.5-2.5° C.=****)”.
Turning to `Cc1cc(N2CC3(CC[C@H]3c3cccc(F)c3)C2)cn2nc(C(=O)N3CC[C@@]4(CCN(c5cccc(C(=O)O)n5)C4)C3)nc12` [Compound 736, 6-[(5R)-2-[6-[(7S)-7-(3-fluorophenyl)-2-azaspiro[3.3]heptan-2-yl]-8-methyl-[1,2,4]triazolo[1,5-a]pyridine-2-carbonyl]-2,7-diazaspiro[4.4]nonan-7-yl]pyridine-2-carboxylic acid], the DSF result is reported as “***** (>2.5° C.=*****)”.
The entry for `Cc1cc(N2CC3(CCC3c3cccc(F)c3)C2)cn2nc(C(=O)N3CC[C@@]4(CCN(c5cccc(C(=O)O)n5)C4)C3)nc12` (some centres unmarked) [Compound 737] is “***** (>2.5° C.=*****)”; for `Cc1cc(N2CC3(CCC3c3cccc(F)c3)C2)cn2nc(C(=O)N3CC[C@@]4(CCN(c5cccc(C(=O)O)n5)C4)C3)nc12` (some centres unmarked) [Compound 738] it is “***** (>2.5° C.=*****)”.
Consider `Cc1cc(N2CC3(CCC3c3cccc(F)c3)C2)cn2nc(C(=O)N3C[C@@H]4CN(c5cccc(C(=O)O)n5)C[C@@H]4C3)nc12` (some centres unmarked) [Compound 739], for which the DSF result is “***** (>2.5° C.=*****)”.
For `Cc1cc(N2CC3(CCC3c3cccc(Cl)c3)C2)cn2nc(C(=O)N3CC[C@@]4(CCN(c5cccc(C(=O)O)n5)C4)C3)nc12` (some centres unmarked) [Compound 740] the value was “**** (>1.5-2.5° C.=****)”; for `Cc1cc(N2CC[C@@](C)(n3ccc(C(F)(F)F)n3)C2)cn2nc(C(=O)N3CC[C@@]4(CCN(c5cccc(C(=O)O)n5)C4)C3)nc12` [Compound 741], “***** (>2.5° C.=*****)”; for `Cc1cc(N2CC[C@](C)(n3ccc(C(F)(F)F)n3)C2)cn2nc(C(=O)N3CC[C@@]4(CCN(c5cccc(C(=O)O)n5)C4)C3)nc12` [Compound 742], “***** (>2.5° C.=*****)”.
With `Cc1cc(N2CC3(CC[C@@]3(C)c3ccccc3)C2)cn2nc(C(=O)N3CC[C@@]4(CCN(c5cccc(C(=O)O)n5)C4)C3)nc12` [Compound 743, 6-[(5R)-2-[8-methyl-6-[(7S)-7-methyl-7-phenyl-2-azaspiro[3.3]heptan-2-yl]-[1,2,4]triazolo[1,5-a]pyridine-2-carbonyl]-2,7-diazaspiro[4.4]nonan-7-yl]pyridine-2-carboxylic acid], the DSF entry is on record as “***** (>2.5° C.=*****)”.
`Cc1cc(N2CCC(C)(n3cc(C(F)(F)F)cn3)C2)cn2nc(C(=O)N3CC[C@@]4(CCN(c5cccc(C(=O)O)n5)C4)C3)nc12` (stereo partly drawn) [Compound 744, 6-[(5R)-2-[8-methyl-6-[3-methyl-3-[4-(trifluoromethyl)pyrazol-1-yl]pyrrolidin-1-yl]-[1,2,4]triazolo[1,5-a]pyridine-2-carbonyl]-2,7-diazaspiro[4.4]nonan-7-yl]pyridine-2-carboxylic acid]: the DSF result is recorded as “***** (>2.5° C.=*****)”.
Take `Cc1ccn(C2(C)CCN(c3cc(C)c4nc(C(=O)N5CC[C@@]6(CCN(c7cccc(C(=O)O)n7)C6)C5)nn4c3)C2)n1` (some centres unmarked) [Compound 745]: the DSF result is listed as “*** (>1-1.5° C.=***)”.
In the case of `Cc1cc(N2CC[C@](C)(c3cccc(Cl)c3)C2)cn2nc(C(=O)N3CC[C@@]4(CCN(c5cccc(C(=O)O)n5)C4)C3)nc12` [Compound 747], the DSF entry was “***** (>2.5° C.=*****)”.
In the case of `Cc1cc(N2CC[C@](C)(c3ccc(F)c(Cl)c3)C2)cn2nc(C(=O)N3CC[C@@]4(CCN(c5cccc(C(=O)O)n5)C4)C3)nc12` [Compound 748], the DSF entry is on record as “***** (>2.5° C.=*****)”.
For the compound `Cc1cc(N2CC[C@](C)(c3ccccc3F)C2)cn2nc(C(=O)N3CC[C@@]4(CCN(c5cccc(C(=O)O)n5)C4)C3)nc12` [Compound 749], the DSF entry is reported as “***** (>2.5° C.=*****)”.
In the case of `Cc1ccc([C@@]2(C)CCN(c3cc(C)c4nc(C(=O)N5CC[C@@]6(CCN(c7cccc(C(=O)O)n7)C6)C5)nn4c3)C2)cc1` [Compound 750], the DSF entry is recorded as “***** (>2.5° C.=*****)”.
For `Cc1cc(N2CC[C@](C)(c3ccc(Cl)c(F)c3)C2)cn2nc(C(=O)N3CC[C@@]4(CCN(c5cccc(C(=O)O)n5)C4)C3)nc12` [Compound 751], the DSF result is “***** (>2.5° C.=*****)”.
With `Cc1cc(N2CC(CF)(c3ccccc3)C2)cn2nc(C(=O)N3CC[C@@]4(CCN(c5cccc(C(=O)O)n5)C4)C3)nc12` [Compound 752, 6-[(5R)-2-[6-[3-(fluoromethyl)-3-phenyl-azetidin-1-yl]-8-methyl-[1,2,4]triazolo[1,5-a]pyridine-2-carbonyl]-2,7-diazaspiro[4.4]nonan-7-yl]pyridine-2-carboxylic acid], the DSF result was “***** (>2.5° C.=*****)”.
For `Cc1cc(N2CC[C@](C)(c3cccc(F)c3)C2)cn2nc(C(=O)N3CC[C@@]4(CCN(c5cccc(C(=O)O)n5)C4)C3)nc12` [Compound 755], the DSF result is listed as “***** (>2.5° C.=*****)”.
The entry for `Cc1cc(N2CC[C@](C)(c3ccccc3)C2)cc2nc(C(=O)N3CC[C@@]4(CCN(c5cccc(C(=O)O)n5)C4)C3)oc12` [Compound 756, 6-[(5R)-2-[7-methyl-5-[(3R)-3-methyl-3-phenyl-pyrrolidin-1-yl]-1,3-benzoxazole-2-carbonyl]-2,7-diazaspiro[4.4]nonan-7-yl]pyridine-2-carboxylic acid] is “**** (>1.5-2.5° C.=****)”.
On to `CNC(=O)c1nc2c(Cc3nc(CC(=O)O)n[nH]3)cc(N3CC[C@](C)(c4ccccc4)C3)cn2n1` [Compound 759, 2-[5-[[2-(methylcarbamoyl)-6-[(3R)-3-methyl-3-phenyl-pyrrolidin-1-yl]-[1,2,4]triazolo[1,5-a]pyridin-8-yl]methyl]-1H-1,2,4-triazol-3-yl]acetic acid], for which the DSF result is “**** (>1.5-2.5° C.=****)”.
In the case of `CNC(=O)c1nc2c(C(F)F)cc(N3CC[C@](C)(c4ccccc4)C3)cn2n1` [Compound 760, (R)-8-(difluoromethyl)-N-methyl-6-(3-methyl-3-phenylpyrrolidin-1-yl)-[1,2,4]triazolo[1,5-a]pyridine-2-carboxamide], the DSF entry is listed as “***** (>2.5° C.=*****)”.
